# Key:
# [1] = test system: c-myc quadruplex relative to pUC 18 plasmid DNA; assay: Quadruplex/duplex competitor assay (selectivity screen); type: binding; conditions: ratio of the competitor IC50 values; FIG. 3
# Procedure: After cooling down to room temperature, 1 mM KCl and the test compound (various concentrations) were added and the mixture incubated for 15 minutes at room temperature. The primer extension was performed by adding 10 mM KCl and Taq DNA Polymerase (2.5 U/reaction, Promega) and incubating at 70° C. for […]. The reaction was stopped by adding 1 μl of the reaction mixture to 10 μl Hi-Di Formamide mixed and 0.25 μl LIZ120 size standard. Hi-Di Formamide and LIZ120 size standard were purchased from Applied Biosystems. The method is repeated with the addition of various concentrations of competitor nucleic acids at the first step, along with the primer and template sequences. The G-quadruplex binding ligand is added at the concentration previously established to produce a 1:1 ratio of stop-product to full-length product.
# Quadruplex/Duplex Competitor Assay. The selectivity of compounds for the target quadruplex sequence relative to duplex DNA may be measured using a competition assay (i.e., “selectivity screen”). […] The degree to which each competitor successfully “soaks up” drug in solution is reflected by the quantitative decrease in synthesis of the stop product. In this manner, the relative binding affinities of drug to both the target quadruplex and duplex DNA are determined. […]
# HCT-116 cells = assay: Annexin V-Alexa 488 staining; type: cell-based; conditions: 2 uM and 4 uM, 24 hr
# Procedure: The following protocol was followed for this example. […] Incubate o/n or up to 24 hrs at 37° C. in CO2 incubator. […] Keep one or two untreated plates (medium only) as control plates. […] Harvest cells (collect attached as well as floating cells). Wash cells twice with cold PBS. Re-suspend cells in 1× Annexin binding buffer.
# Count cells and dilute in 1× Annexin binding buffer to ˜1×10^6 cells/0.1 ml, preparing a sufficient volume to have 100 μl per assay. Add 5 μl of the Annexin V conjugate to each 100 μl of cell suspension. Add 4 μl of propidium iodide solution (stock=1 mg/ml) to each 100 μl of cell suspension. Incubate sample at RT for 15 minutes. Add 400 μl Annexin binding buffer, mix gently and keep samples on ice. Analyze stained cells immediately by flow cytometry.
# [2] = Metabolic stability and metabolite profiling in hepatocytes; type: in vitro ADME, human
# Procedure: Metabolic Stability Assay and Metabolite Profiling. A human hepatocyte assay to profile metabolites was carried out using commercially available kits and following standard procedures. The metabolic stability of CX-3543 with human hepatocytes was evaluated following incubation at 0, 30, 60, and 120 minutes at 1 and 20 μM. Consumption of the parent compound and the appearance of metabolites were carefully monitored, and mass spectrometer product ion scans were conducted on potential metabolite peaks to define the metabolite fragmentation pattern.
# The protocol is designed to determine the stability of a new chemical entity in the presence of hepatocytes (human, rat, dog, monkey) in in vitro incubations. The test article will be incubated with hepatocytes and suitable media for various times at 37° C. The reaction mixtures will be extracted and analyzed by LC/MS/MS for the parent compound and anticipated metabolites. If applicable, a half-life will be calculated for the consumption of the test article. Metabolism controls will be run for comparison of the half-life values with that obtained for the test article. The metabolism controls are tolbutamide, desipramine and naloxone, and these compounds have defined pharmacokinetics corresponding to low, moderate and high in vivo clearance values, respectively.
# Metabolic Stability Study. Generally, solutions of the test compounds are prepared along with a cocktail solution of metabolism controls that are intended to provide a reference for enzyme activity. The reactions are initiated by combining these pre-warmed solutions with hepatocyte suspensions and with a media control solution. Control zero samples are taken from these reactions immediately after initiation. Additional samples are taken at appropriate time points. Each sample is immediately placed in a terminating solution (acidified acetonitrile containing internal standard) to stop the reaction. Hepatocyte blank suspensions and test compound standard solutions are prepared.
# Samples and standards for the test compound as well as appropriate blanks are subjected to a custom sample preparation procedure and analyzed for the parent and/or metabolite form of the test compound using high-performance liquid chromatography coupled with tandem mass spectrometry. Samples and standards for the metabolism controls are subjected to the analytical method described herein. Where Krebs Henseleit buffer is added, the buffer is bubbled with 5% CO2 in air at room temperature for 5-10 minutes before adding BSA to a final concentration of 0.2% w/v. The volume of terminating solution and the method of sample preparation will be determined for the test article during method development.
# Test Article/Media Solution. A solution of the test article will be prepared by adding an appropriate volume of the stock solution to 0.2% BSA in Krebs Henseleit buffer equilibrated with 5% CO2 in air. The final concentration will be 20 μM and the final assay concentration at initiation of the reactions will be […].
# Metabolism Controls/Media Solution. A solution of tolbutamide, desipramine and naloxone will be prepared by adding an appropriate volume of each 10 mM stock solution to 0.2% BSA in Krebs Henseleit buffer equilibrated with 5% CO2 in air. […]
# Hepatocyte Suspension Solution. […] During the final step of the procedure, the viability of the cells will be determined using the method of trypan blue exclusion. […]
smiles,measurement,setting,value
CN1CCCC1CCNC(=O)c1cn2c3c(c(N4CCC(c5cnccn5)C4)c(F)cc3c1=O)Oc1cc3ccccc3cc1-2 (stereo not shown) [CX-3543],selectivity for the c-myc quadruplex relative to pUC 18 plasmid DNA,[1],approximately 400 ×
same,staining by a dye positive for Annexin V externalization,HCT-116 cells,significant increased staining
same,metabolites in the hepatocyte incubation medium,[2]; 0 vs 120 min,no single major metabolite is present
same,consumption by hepatocytes,[2]; 1 uM,very slowly
same,original drug remaining,[2]; at or below 12 uM,about 60%
same,consumption by hepatocytes,[2]; concentrations from about 12-20 uM,moderately to quickly
same,Km,"[2]; human, human hepatocytes (suspension), read-out: apparent Km of consumption by hepatocytes",> 20 µM

# From patent US7507727B2, “Substituted quinobenzoxazine analogs and methods of using thereof” (Cylene Pharmaceuticals, Inc., priority 2003, dated 2009)
